Columns and labels:
blood glucose = experiment: Intranasal insulin in […] TDM, anesthesia-induced hyperglycemia model; assay type: in vivo, mouse; conditions: intranasal insulin alone, minus […] TDM
From the text: Intranasal administration of drugs or agents are possible in animal models e.g. mice and rats, although the nasal opening in is very small. In the experiments and results described herein, an anesthesia-induced hyperglycemia model was used (described in Examples above). Hyperglycemic animals were induced by an intraperitoneal (IP) injection containing xylazine-ketamine and blood glucose levels were monitored over a period of time. Immediately after the xylazine-ketamine injection, there was an increase in the blood glucose levels as shown in FIG. 2 (closed dark circles), and blood glucose levels were about 450 mg/dl. […] Blood glucose levels peak to about 482 mg/dl by 30 minutes after the xylazine-ketamine injection (FIG. 2). […] At about the 75 minute time point, blood glucose levels gradually returned to the baseline level in a normoglycemic mouse, or about 80-100 mg/dl.

mucociliary surfaces = conditions: concentrations far below those used in intranasal formulations; cited from earlier work
[1] = whole-swallowed tablet, cited from earlier work
[2] = cited from earlier work
food intake = conditions: injection; less than usual, on average; cited from earlier work
[3] = Intranasal triptans with alkylsaccharide in rats, plasma levels by HPLC; assay type: in vivo;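 further: rats in groups of eight given 20 µL into one nostril, dose expressed as triptan free base, Cmax and Tmax read from plasma concentration–time curves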
Experimental: Each set of drug solutions is administered to six groups of eight rats each by 20 uL instillation to a single nare of each animal. […] After the last blood sample is collected each animal is cuthanizcd with CO2. After blood collection, plasma is immediately prepared from each blood sample using lithium/heparin as the anticoagulant. Plasma samples are stored at −70° C. until analyzed. […] The observed Tmax values from each plot is determined by inspection of the concentration vs time plots and recorded as shown in Table XII. The doses designated in this table reflect amounts of triptan free base in each case.

blood D-glucose = experiment: Insulin eye drops with absorption enhancer in xylazine/ketamine-anesthetized hyperglycemic rats, blood D-glucose; assay type: in vivo, rat; conditions: for hypoglycemic effect / insulin absorption enhancement: eye drops 0.2% insulin + 0.5% enhancer; for Blood Glucose Concentrations: insulin eye drops + 0.50% dodecyl maltoside
[4] = system: Candida albicans (ATCC No. 10231); experiment: Antimicrobial activity of alkylglycoside solutions, plate count log reduction; assay type: cell-based; conditions: […]
From the text: (§1) 20110-2209. The viable microorganisms used in the invention were not more than five passages removed from the original ATCC culture. As described herein, one passage is defined as the transfer of organisms from an established culture to fresh medium and all transfers are counted.
(§2) Cultures received from the ATCC are resuscitated according to the directions provided by the ATTC. Cells grown in broth were pelleted by centrifugation, resuspended in 1/20th the volume of fresh maintenance broth, and combined with an equal volume of 20% (v/v in water) sterile glycerol. Cells grown on agar were scraped from the surface into the maintenance broth also containing 10% glycerol broth. Small aliquots of the suspension were dispensed into sterile vials and the vials were stored in liquid nitrogen or in a mechanical freezer at a temperature no higher than about −50° C. When a fresh seed-stock vial was required, it was removed and used to inoculate a series of working stock cultures. These working stock cultures were then used periodically (each day in the case of bacteria and yeast) to start the inoculum culture.
(§3) The culture conditions for the inoculum culture is substantially as described in Table IV. For example, suitable media can include but is not limited to, Soybean-Casein Digest or Sabouraud Dextrose Agar Medium. […]
(§4) The suspension should be refrigerated if it is not used within 2 hours. To confirm the initial cfu per mL estimate, the number of cfu per mL in each suspension was determined using the conditions of media and microbial recovery incubation times listed in Table IV (e.g., from about 3 to about 7 days). This value serves to calibrate the size of inoculum used in the test. The bacterial and yeast suspensions were used within 24 hours of harvest; whereas the fungal preparation can be stored under refrigeration for up to 7 days.
(§5) To determine which alkylglycoside formulations have antibacterial activity, the formulations were prepared in phosphate buffered saline (PBS) at pH 7. As a source of nutrition, either 1.5 mg/mL bovine serum albumin (BSA; see Tables V and VI) or 1 mg/mL of PYY was added (see Table VII) to the medium. BSA (CAS Number: 9048-46-8) was obtained from Sigma-Aldrich, St. Louis, Mo., USA, n-dodecyl-4-O-α-D-glucopyranosyl-β-D-glucopyranoside and n-tetradecyl-4-O-α-D-glucopyranosyl-β-D-glucopyranoside were obtained from Anatrace Inc., Maumee, Ohio, USA, and PYY was obtained from Bachem California Inc., Torrance, Calif., USA.
(§6) Antibacterial activity of the alkylglycosides were conducted in four sterile, capped bacteriological containers of suitable size into which a sufficient volume of alkylglycoside solution had been transferred. Each container was inoculated with one of the prepared and standardized inoculums and mixed. The volume of the suspension inoculum was between about 0.5% and about 1.0% of the volume of the alkylglycoside solution. […]. To determine the level of inhibition of growth, or reduction of growth based on a logarithmic scale, the initial concentration of viable microorganisms in each test preparation was estimated based on the concentration of microorganisms in each of the standardized inoculum as determined by the plate-count method. The inoculated containers were then incubated at about 22.5° C.±2.5. The growth or non-growth of the microorganisms in each culture/container were again determined at day 14 and day 28. The number of cfu present in each calculation was determined by the plate-count procedure standard in the art for the applicable intervals. The change in the orders of magnitude of bacterium and/or fungi was then determined by subtracting the first calculated log 10 values of the concentrations of cfu per mL present at the start or beginning (e.g., day 0), from the log 10 values of the concentration of cfu per mL for each microorganism at the applicable test intervals (e.g., day 14 and day 28; see Tables V, VI and VII).

[5] = system: Aspergillus niger (ATCC No. 16404); experiment: as above; assay type: cell-based; conditions: […]
From the text: as §1, §2, §3, §4, §5, §6

[6] = system: Escherichia coli (ATCC No. 8739); experiment: as above; assay type: cell-based; conditions: […]
From the text: as §1, §2, §3, §4, §5, §6

[7] = system: Staphylococcus aureus (ATCC No. 6538); experiment: as above; assay type: cell-based; conditions: […]
From the text: as §1, §2, §3, §4, §5, §6

human nasal epithelium = conditions: in vivo
[8] = Naratriptan 0.22 mg/kg intranasal, alkylsaccharide 0.02%
[9] = Naratriptan 0.22 mg/kg intranasal, alkylsaccharide 0.05%
[10] = Naratriptan 0.22 mg/kg intranasal, alkylsaccharide 0.1%
[11] = Naratriptan 0.22 mg/kg intranasal, alkylsaccharide 0.5%
[12] = Naratriptan 0.22 mg/kg intranasal, alkylsaccharide 2%
[13] = Sumatriptan 6.2 mg/kg intranasal, alkylsaccharide 0.02%
[14] = Sumatriptan 6.2 mg/kg intranasal, alkylsaccharide 0.05%
[15] = Sumatriptan 6.2 mg/kg intranasal, alkylsaccharide 0.1%
[16] = Sumatriptan 6.2 mg/kg intranasal, alkylsaccharide 0.5%
[17] = Sumatriptan 6.2 mg/kg intranasal, alkylsaccharide 2%

Molecule: insulin alone: insulin (Humalog) given intranasally without TDM
- return to normoglycemic levels (blood glucose): never return to normoglycemic levels
- time mark at which blood glucose starts to decline (blood glucose): ~120 min

Molecule: benzalkonium chloride
- toxicity to mucociliary surfaces (mucociliary surfaces): significant disruption of the mucociliary surfaces

Molecule: Cc1cc2c(s1)Nc1ccccc1N=C2N1CCN(C)CC1 [olanzapine, Olanzapine]
- time to peak concentrations ([1]; oral dose): approximately 6 hours
- dose metabolized by first pass before reaching systemic circulation [1]: approximately 40%

Molecule: COc1ccc2[nH]cc(CCNC(C)=O)c2c1 [melatonin, 5-methoxy-N-acetyltryptamine]
- bioavailability (estimated) ([2]; oral administration): 30-50%
- absolute bioavailability ([2]; oral tablets, normal healthy volunteers, DeMuro et al. (2000)): approximately 15%

Molecule: PYY: gut hormone fragment peptide PYY3-36
- reduction of food eaten (food intake): 30%

Molecule: CCCCCCCCCCCCO[C@@H]1O[C@H](CO)[C@@H](O[C@H]2O[C@H](CO)[C@@H](O)[C@H](O)[C@H]2O)[C@H](O)[C@H]1O [dodecyl maltoside, n-dodecyl-4-O-α-D-glucopyranosyl-β-D-glucopyranoside]
- Ratio Cmax(alkylsacch)/Cmax(No alkylsacch) [3, 8]: ≦1.5
- Tmax [3, 8]: ~60 to 120 min
- Ratio Cmax(alkylsacch)/Cmax(No alkylsacch) [3, 9]: ≧1.5
- Tmax [3, 9]: ~5 to 15 min
- Ratio Cmax(alkylsacch)/Cmax(No alkylsacch) [3, 10]: ≧1.5
- Tmax [3, 10]: ~5 to 15 min
- Ratio Cmax(alkylsacch)/Cmax(No alkylsacch) [3, 11]: ≧1.5
- Tmax [3, 11]: ~5 to 15 min
- Ratio Cmax(alkylsacch)/Cmax(No alkylsacch) [3, 12]: ≧1.5
- Tmax [3, 12]: ~5 to 15 min
- Tmax ([3]; Rizatriptan […] intranasal, alkylsaccharide 0.02%): ~60 to 120 min
- Tmax ([3]; Rizatriptan […] intranasal, alkylsaccharide 0.05%): ~5 to 15 min
- Tmax ([3]; Rizatriptan […] intranasal, alkylsaccharide 0.1%): ~5 to 15 min
- Tmax ([3]; Rizatriptan […] intranasal, alkylsaccharide 0.5%): ~5 to 15 min
- Tmax ([3]; Rizatriptan […] intranasal, alkylsaccharide 2%): ~5 to 15 min
- Ratio Cmax(alkylsacch)/Cmax(No alkylsacch) [3, 13]: ≦1.5
- Tmax [3, 13]: ~60 to 120 min
- Ratio Cmax(alkylsacch)/Cmax(No alkylsacch) [3, 14]: ≧1.5
- Tmax [3, 14]: ~5 to 15 min
- Ratio Cmax(alkylsacch)/Cmax(No alkylsacch) [3, 15]: ≧1.5
- Tmax [3, 15]: ~5 to 15 min
- Ratio Cmax(alkylsacch)/Cmax(No alkylsacch) [3, 16]: ≧1.5
- Tmax [3, 16]: ~5 to 15 min
- Ratio Cmax(alkylsacch)/Cmax(No alkylsacch) [3, 17]: ≧1.5
- Tmax [3, 17]: ~5 to 15 min
- hypoglycemic effect / insulin absorption enhancement (blood D-glucose): equally effective
- hypoglycemic effect / insulin absorption enhancement (blood D-glucose; listed as dodecyl-β3-D-maltoside): prompt and sustained fall in blood glucose levels
- Blood Glucose Concentrations (blood D-glucose; time 0 min): 379 ± 4 mg/dL
- Blood Glucose Concentrations (blood D-glucose; time 30 min): 297 ± 18 mg/dL
- Blood Glucose Concentrations (blood D-glucose; time 60 min): 188 ± 25 mg/dL
- Blood Glucose Concentrations (blood D-glucose; time 90 min): 141 ± 13 mg/dL
- Blood Glucose Concentrations (blood D-glucose; time 120 min): 123 ± 5 mg/dL
- Blood Glucose Concentrations (blood D-glucose; time −10 min): 366 ± 12 mg/dL
- Blood Glucose Concentrations (blood D-glucose; time −20 min): 375 ± 9 mg/dL
- Log Reduction of Microorganisms, Day 14 ([4]; BSA): 3.0 orders of orders of magnitude reduction
- Log Reduction of Microorganisms, Day 28 ([4]; BSA): ≧5.3 orders of orders of magnitude reduction
- Log Reduction, Day 14 ([4]; PYY): ≧4.5 orders of orders of magnitude reduction
- Log Reduction, Day 28 ([4]; PYY): ≧4.5 orders of orders of magnitude reduction
- Log Reduction of Microorganisms, Day 14 ([5]; BSA): 0.7 orders of orders of magnitude reduction
- Log Reduction, Day 14 ([5]; PYY): 4.7 orders of orders of magnitude reduction
- Log Reduction, Day 28 ([5]; PYY): 4.7 orders of orders of magnitude reduction
- Log Reduction of Microorganisms, Day 28 ([6]; BSA): 0.1 orders of orders of magnitude reduction
- Log Reduction, Day 14 ([6]; PYY): ≧5 orders of orders of magnitude reduction
- Log Reduction, Day 28 ([6]; PYY): ≧5 orders of orders of magnitude reduction
- Log Reduction of Microorganisms, Day 14 ([7]; BSA): ≧5.2 orders of orders of magnitude reduction
- Log Reduction of Microorganisms, Day 28 ([7]; BSA): ≧5.2 orders of orders of magnitude reduction
- Log Reduction, Day 14 ([7]; PYY): ≧4.9 orders of orders of magnitude reduction
- Log Reduction, Day 28 ([7]; PYY): ≧4.9 orders of orders of magnitude reduction

Molecule: CCCCCCCCCCCC(=O)OC[C@H]1O[C@H](O[C@]2(CO)O[C@H](CO)[C@@H](O)[C@@H]2O)[C@H](O)[C@@H](O)[C@@H]1O [sucrose dodecanoate]
- irritation of the nasal mucosa (human nasal epithelium): no observable irritation

— patent US9283280B2, “Compositions for drug administration” (Aegis Therapeutics, LLC, priority 2008, dated 2016)
